The values below come from US20110182877A1, “SUSTAINED DELIVERY OF COMPSTATIN ANALOGS FROM GELS” (POTENTIA PHARMACEUTICALS, INC., priority 2007, published 2011).

Several values for one entry are separate records, joined by “and”; a condition that tells them apart may be missing. Equal values may be shown once. Bridge positions count the residues as written; N and C are the ends. Square brackets hold non-standard residues; d marks the D form. Trp(5-F) = N[C@@H](Cc1c[nH]c2ccc(F)cc12)C(=O)O

Data set [1] in a line: Further studies of deposits, serum and vitreous concentration after intravitreal injection (Example 3). The data set is classed as in vivo, Cynomolgus monkeys. The procedure: In one study, Cynomolgus monkeys were administered 0, 150, 450, 1050, or 2100 μg of compound in 50 μl WFI by intravitreal injection.
Some of the animals that had been administered 0, 450, 1050, or 2100 μg were sacrificed, and compound concentration in serum and vitreous was measured 14 days following administration. Compound measurement was performed using HPLC. […] When administered at concentrations too low to form a deposit, the compound is cleared from the Cynomolgus vitreous with a T1/2 of about 22 hours. Therefore, it is evident that the compound measured in this experiment after 2 weeks must reflect release from the deposit rather than residual compound that was never present in the deposit.
The study was continued to evaluate behavior of the deposits over time. […] There was evidence that they were diminishing in size and/or density at the 6 month time point. […] The deposits could be observed both by ophthalmoscopic examination and ultrasound. They appeared to continue diminishing in size and/or split into multiple smaller deposits over time.
The deposits were undetectable using these techniques by approximately 1 week following dosing.

The nature of data set [2]: Ocular safety examinations after intravitreal injection (Example 1). Conditions: Cynomolgus monkey. Type of data set: in vivo. Here is the method: During studies involving intravitreal administration of the compstatin analog whose synthesis was described above (SEQ ID NO: 32) in water for injection to non-human primates it was observed that the compound has the ability to form gel-like, approximately spheroidal intravitreal deposits in the primate (Cynomolgus monkey) eye following intravitreal injection. […] The high dose consisted of the intravitreal (IVT) injection of an estimated dose of 150 μg of compound in a volume of 50 μL water for injection while the low dose consisted of an estimated dose of 3 μg of compound in a volume of 50 μL water for injection.
(§1) At necropsy, in the majority of male animals (10 of 12) that had been dosed with compound IVT at 150 μg/eye, gel-like spheroidal intravitreal deposits were observed upon dissection of the eye. These deposits were isolated and analyzed for the presence of the compound.

The nature of data set [3]: Intravitreal administration to non-human primates: deposit formation and compound content (Example 1). The data set is classed as in vivo. Conditions: Cynomolgus monkey, IVT 150 μg/eye, from 4 hours to 2 weeks post administration. The procedure: Two different formulations were manufactured by dissolving the compound into water for injection at different concentrations: (i) 0.299 mg/mL, designated LD and (ii) 4.51 mg/mL, designated as HD and filter sterilizing through a Millipore Durapore 47 mm 0.22 μm filter. The liquid compositions were dispensed into individual vials (250 μl each). The pH of the LD composition was 5.48 while that of the HD composition was 6.0.
During studies involving intravitreal administration of the compstatin analog whose synthesis was described above (SEQ ID NO: 32) in water for injection to non-human primates it was observed that the compound has the ability to form gel-like, approximately spheroidal intravitreal deposits in the primate (Cynomolgus monkey) eye following intravitreal injection. […]
as §1
The deposits were analyzed for drug content, and drug content was observed and measured using HPLC.

The nature of data set [4]: Indirect ophthalmoscope exam in dose-ranging study for vitreous deposits formation. Type of data set: in vivo, New Zealand White rabbits. The arrangement: key to Indirect Exam Vit.: 0: Clear, no deposits, bubbles, or haziness detectable; 1: Light haziness, no opaque deposits or vitreous opacity; 2: Moderate opacity or opaque bubble or deposit; 3: Pronounced vitreal opacity; 4: Opaque; key to Indirect Exam Retina: 0: Flat, no mars, blisters or blemishes; 1: Not flat; has wrinkles, bumps, or ripples; 2: Minor inflammation or bleeding; 3: Retinal detachment, moderate hemorrhage; 4: Destruction of retinal tissue (GA, CNV, retinal tear). Conditions: NZW rabbit; for Indirect Exam Retina / Indirect Exam Vit.: 27 hours after treatment. Here is the method: The study examined the ability of compound in amounts ranging from 0 to 200 μg/eye (0, 25, 50, 75, 100, 125, 150,175, 200 μg) to form deposits in the eye following intravitreal injection (Table 2). Each concentration was injected into three eyes. Thirteen animals were used for dose-ranging. Five additional animals were used for histological analysis.
Injection Procedures: Intravitreal injections were administered using a 0.5 cc tuberculin syringe (with permanently attached 29 G ½ inch needle); 0.2 ml of compound solution was withdrawn from the vial. Excess liquid was expelled, so that the syringe contained only the necessary volume of liquid for a single injection (50 μl). The eye was kept open using an eye lid speculum. The needle was inserted in the supero-temporal quadrant, through an area 3.5-4.0 mm posterior to the limbus, avoiding the horizontal meridian and aiming toward the center of the eye. Only half (¼ inch) of the needle total length (½ inch) was inserted into the eye. The injection volume was delivered slowly to prevent a rapid increase in intraocular pressure. To ensure that all the solution is in the eye and to avoid push-back through the injection site, the needle was removed slowly.
Ophthalmic Examinations: All animals received an ophthalmic exam (indirect ophthalmoscope) by a practicing clinical ophthalmologist prior to sacrifice.

The nature of data set [5]: Histopathological analysis of eyes after intravitreal injection. The data set is classed as in vivo, New Zealand White rabbits. Here is the method:
Histopathological Analysis: After examination, animals were euthanized and eyes were enucleated, fixed in Davidson's solution, sectioned and H/E stained. Sections from both eyes of animals receiving 25, 50, or 100 μg/eye of compound (Table 2, last three animals) were examined by an American Board of Pathology-certified pathologist, and peer-reviewed by a board-certified and recognized expert veterinary pathologist.
Five animals in this study were also processed for histopathological evaluation. The eyes were evaluated by two pathologists. […] The cornea, iris, ciliary body, lens, sclera, retina, and vitreous were all normal.

For another data set, the system named is complement activation. Conditions: relative to compstatin amidated at the C-terminus; based on published data; cited from earlier work.

Turning to `CC[C@H](C)[C@H](NC(C)=O)C(=O)N[C@H]1CSSC[C@@H](C(=O)N[C@H](C(N)=O)[C@@H](C)O)NC(=O)[C@H](CCCNC(=N)N)NC(=O)[C@H](Cc2cnc[nH]2)NC(=O)[C@H](C)NC(=O)CNC(=O)[C@H](Cc2c[nH]c3ccccc23)NC(=O)[C@H](CC(=O)O)NC(=O)[C@H](CCC(N)=O)NC(=O)[C@H](Cc2cn(C)c3ccccc23)NC(=O)[C@H](C(C)C)NC1=O` [Ac-V4(1-MeW)/H9A, Ac-ICV(1-methyl-W)QDWGAHRCT-CONH2], the “Continued release based on serum samples” value in data set [1] (Cynomolgus monkey, IVT 450, 1050, 2100 μg, up to 1 year) is on record as “continued release of compstatin analog occurred during this time”. In data set [1] (Cynomolgus monkeys, 14 days following IVT 450, 1050 or 2100 μg), the “Serum concentration relative to vitreal concentration at the same dose” value is given as “approximately 100 fold lower”. For the same compound, the “Duration of release from intravitreal deposits” value in data set [1] (Cynomolgus monkeys, IVT 450, 1050 or 2100 μg, serum and vitreous HPLC at 14 days) is listed as “at least two weeks”. The half-life in data set [1] (cynomolgus monkey, other: intravitreal injection, Cynomolgus vitreous, concentrations too low to form a deposit, read-out: T1/2 of clearance from the vitreous (converted)) is ~22 h. The “Adverse effects attributable to the deposits” value is given as “No adverse effects attributable to the deposits were observed” in data set [1] (monkey studies, histopathology and physical examination); “No adverse effects attributable to the deposits were observed” in data set [5] (rabbit studies, histopathology and physical examination). Besides, the “Adverse reactions caused by compound within the vitreous cavity” value in data set [2] (IVT 3 or 150 μg/eye) is “no evidence that the compound within the vitreous cavity caused any apparent adverse reactions”. For the same compound, the ERG values result in data set [2] (IVT 3 or 150 μg/eye) is reported as “within normal limits”. Further, the “Tonometry, intraocular pressure” value in data set [2] (IVT 3 or 150 μg/eye) is on record as “no drug-related changes in intraocular pressure”. The “Vitreal haze, binocular indirect ophthalmoscopy” value in data set [2] (day 2, IVT 3 μg/eye) is reported as “diffuse vitreal haze in the right eye of one animal”; in data set [2] (day 2, IVT 150 μg/eye) it was “four animals”. In addition, the “Slit lamp examinations of the anterior segment of the eye” value in data set [2] (days 2 and 15 following IVT administration) is on record as “no abnormalities”. In addition, the “Histopathology of the eyes” value in data set [2] (with or without intravitreal deposits) is “no drug-related abnormalities were observed”. The “Compound in the vitreous” value in data set [3] is given as “presence of the compound at all time points examined”. Further, the “Indirect Exam Retina” value in data set [4] (25 μg/eye IVT in 50 μl), in data set [4] (50 μg/eye IVT in 50 μl), in data set [4] (75 μg/eye IVT in 50 μl), in data set [4] (100 μg/eye IVT in 50 μl), in data set [4] (125 μg/eye IVT in 50 μl) and in data set [4] (150 μg/eye IVT in 50 μl) was 0 each time. Further, the “Indirect Exam Retina” value in data set [4] (175 μg/eye IVT in 50 μl) was 2 and 0; in data set [4] (200 μg/eye IVT in 50 μl) it was 0. Also, the “Indirect Exam Vit.” value in data set [4] (25 μg/eye IVT in 50 μl) was 1; in data set [4] (50 μg/eye IVT in 50 μl), 2 and 1; in data set [4] (75 μg/eye IVT in 50 μl), 1 and 2; in data set [4] (100 μg/eye IVT in 50 μl), 2 and 3; in data set [4] (125 μg/eye IVT in 50 μl), 1; in data set [4] (150 μg/eye IVT in 50 μl), 2 and 1. The “Indirect Exam Vit.” value in data set [4] (175 μg/eye IVT in 50 μl) is 2 and 1 and 4; in data set [4] (200 μg/eye IVT in 50 μl), 1. Further, the “Pathological changes on indirect ophthalmoscopic exam” value in data set [4] (IVT 25-200 μg/eye) is “did not reveal any pathological changes”. In addition, in data set [4] (IVT, did not correlate strongly with dose), the “Eyes with vitreous haze” value is 9 of the 32. In data set [5] (NZW rabbit, single-dose IVT 25, 50 and 100 μg/eye, two pathologists), the “Histopathological evaluation of eyes” value is given as “all the evaluated eyes were normal”.

As for “Ac-ICV(5fW)QD(5fW)GAHRCT-CONH2 (Ac-ICV[Trp(5-F)]QD[Trp(5-F)]GAHRCT-NH2; disulfide 2-12) [Ac-V4(5fW)/W7(5fW)/H9A]”, in the data set with complement activation, the Activity over compstatin is 161× more.
